“And” between values parts separate entries of the source, which are not always exact repeats. Equal entries are not always repeated. The source made the active and inactive calls.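 How the source made its calls: active means compounds giving half or more protection of infected cells from virus-caused growth loss, again on retest; inactive means the rest.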
Tested on: CEM cells HIV-1 protection, formazan growth assay
Assay: NCI AIDS Antiviral Assay
Settings: for IC50: measured here: growth of uninfected CEM cells
Summary of the method: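 Protection of CEM cells against HIV-1 was scored from cell growth (soluble formazan) across five concentrations, with parallel uninfected cells. Lack of protection may reflect toxicity.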

SMILES	EC50	IC50	outcome
Clc1ccc(-c2nnc(-c3nsc4ccccc34)o2)cc1	> 12 µM	> 12 µM	
CC(=O)OCC1OC(Nc2nncs2)C(OC(C)=O)C1OC(C)=O (stereo unspecified)	> 692 µM	562 µM	
O=C(O)c1cc(Cc2cc(C(=O)O)c(O)c3ccccc23)c2ccccc2c1O	> 0.813 µM	> 0.813 µM	
CC(C)CCCC(C)[C@H]1CCC2[C@@H]3CCC4Nc5nocc5C[C@]4(C)C3CC[C@@]21C (stereo partly specified)			inactive
O=C(O)C(C(=O)O)P(=S)(S)c1ccccc1 (stereo unspecified)	> 4570 µM	> 4570 µM	
CC(=O)Nc1sccc1S(=O)(=O)c1ccsc1NC(C)=O	> 200 µM	5.62 µM	
CC(CCC=C(c1cc(Cl)c(O)c(C(=O)O)c1)c1cc(Cl)c(O)c(C(=O)O)c1)C1CCC2C3CC[C@@H]4CCCC[C@]4(C)C3CC[C@]12C (stereo partly specified)	> 7.24 µM	> 7.24 µM	
CC12CC1C(c1cccc([N+](=O)[O-])c1)(c1cccc([N+](=O)[O-])c1)N=N2 (stereo unspecified)	> 200 µM	13.5 µM	
COC(=O)C1C(OC(=O)c2ccccc2)CC2CCC1N2C(N)=O (stereo unspecified)	> 200 µM	> 200 µM	
C/C=C(/C)C(=O)O[C@@H]1c2c(C)coc2C[C@H]2CC[C@H](O)[C@H](C)[C@]21C	> 200 µM	58.9 µM	
CCOc1ccc(NC(=O)C(=O)C(/C(=N/N)C(=O)OC)c2nc3ccc([N+](=O)[O-])cc3[nH]c2=O)cc1 (stereo unspecified)	> 14.5 µM	> 14.5 µM	
O=C(Nc1ccc(Cl)cc1)Nc1cccc2nsnc12	> 32.4 µM	20.4 µM	
O=C1CN=C(c2ccccn2)c2cc(Cl)ccc2N1CCO	> 794 µM	468 µM	
O=C1CCCN1C(=O)CS(=O)(=O)c1ccccc1	> 200 µM	> 200 µM	
CC1=C(C)CS(=O)(=O)N(c2ccccc2)C1	> 200 µM	> 200 µM	
Cc1ccccc1C(C#N)C(=O)C(=O)Nc1nc([N+](=O)[O-])cs1 (stereo unspecified)	> 7.94 µM	> 7.94 µM	
N#Cc1ccc(Nc2cnc3ccc(N)cc3n2)cc1	> 10.5 µM	> 10.5 µM	
O=C(NC(=O)c1cn(C2OC(CO)C(O)C2O)c(=O)[nH]c1=O)OCc1ccccc1 (stereo unspecified)	> 589 µM	> 589 µM	
CN(C)CC(NC(NCS)C(=O)NCCNc1ccc(NCCNC(=O)C(NCS)NC(CN(C)C)OCCl)c2c1C(=O)c1c(O)ccc(O)c1C2=O)OCCl (stereo unspecified)	> 0.0501 µM	0.0182 µM	
CCCCCC[N+]1(C)CC2C3C=CC(C3)C2C1 (stereo unspecified)	> 245 µM	> 100 µM	
COc1ccc(/C=C2\CCCCCC2=O)cc1	> 200 µM	> 200 µM	
CCN(CC)C1Oc2cc3c(cc2C(c2cccc(OC)c2OC)C1C)OCO3 (stereo unspecified)	> 200 µM	1.58 µM	

SMILES	EC50	IC50	outcome
Cn1cncc1CC1COC(=O)C1C(O)c1ccccc1 (stereo unspecified)	> 200 µM	> 200 µM	
c1ccc(SCCP(CCP(c2ccccc2)c2ccccc2)c2ccccc2)cc1 (stereo unspecified)	> 21.9 µM	0.355 µM	
Cc1ccccc1NC(=O)O/N=C(\Cl)C(C)C	> 20 µM	3.16 µM	
COC(NC(=O)Nc1ccc(C)cc1)(C(F)(F)F)C(F)(F)F	> 200 µM	27.5 µM	
NCCCCCC(=O)O	> 200 µM	> 200 µM	
CC1(C)CCc2cc3c(cc2O1)OCCC3=O			inactive
Cc1cccc2c1C(=O)/C(=C/c1ccccc1C(=O)O)C2	> 200 µM	123 µM	
CCOC(=O)/C(O)=C/c1cc(OC)cc(=O)o1			inactive
COc1ccc2oc(C(=O)O)c3c2c1CCC3			inactive
C=C1C(C)C2C(Cc3ccccc3)NC(=O)C23C(OC(C)=O)/C=C/C(C)(O)CC(C)C/C=C/C3C1O (stereo unspecified)	> 2 µM	0.0977 µM	
[Cl][Cu+].[NH-]C(Cc1c[nH]cn1)C(=O)O (stereo unspecified)	> 46.8 µM	26.9 µM	
COC(=O)c1c2c(cc3c1CC1(C3)Cc3cc4c(c(C(=O)OC)c3C1)CCCC4)CCCC2	> 200 µM	> 200 µM	
O=C(CSc1nc(-c2ccccc2)c(-c2ccccc2)[nH]1)N/N=C/c1ccc(O)cc1	> 43.7 µM	9.77 µM	
CN(C)[C@@H]1C(=O)C(C(=O)NCNc2cccc(C(=O)O)c2C(=O)O)=C(O)[C@@]2(O)C(=O)C3=C(O)c4c(O)cccc4[C@@](C)(O)[C@H]3C[C@@H]12	> 5.89 µM	> 5.89 µM	
C[C@@H]1C[C@H]2[C@@H]3C[C@H](F)C4=CC(=O)C=C[C@]4(C)[C@@]3(F)[C@@H](O)C[C@]2(C)C1C(=O)COC(=O)c1cccc2c(=O)c3ccccc3[nH]c12 (stereo partly specified)	> 100 µM	2 µM	
CC1=C(C(=O)Nc2cccc(C(F)(F)F)c2)C(c2ccccc2F)C(C(=O)Nc2cccc(C(F)(F)F)c2)=C(C)N1	> 32.4 µM	18.6 µM	
O=C(OCCN=C1c2ccccc2CCc2ccccc21)c1cc([N+](=O)[O-])cc([N+](=O)[O-])c1	> 200 µM	70.8 µM	
O=C1C(c2ccccc2)=C(c2ccccc2)C(c2ccc(Cc3ccc(C4=C(c5ccccc5)C(=O)C(c5ccccc5)=C4c4ccccc4)cc3)cc2)=C1c1ccccc1	> 1.35 µM	> 1.35 µM	
COC(=O)Cc1cc(=O)[nH]c2c1C(=O)CCC2			inactive
CCN(CC)CCSc1c2cc(OC)ccc2nc2ccc(OC)cc12	> 200 µM	2.95 µM	
N#Cc1c(-c2ccccc2)cn(C(=O)c2ccccc2)c1N	> 200 µM	191 µM	
CC(=O)Nc1ccc(-c2nnc(SCC(=O)Nc3ccc(C)cc3)o2)cc1	> 67.6 µM	11.7 µM	

SMILES	EC50	IC50	outcome
C[n+]1c(-c2ccc(/C=N/NC(=O)C(=O)N/N=C/c3ccc(-c4cn5ccccc5[n+]4C)cc3)cc2)cn2ccccc21	56.2 µM and > 200 µM	74.1 µM and > 200 µM	
COc1cc(/C=C2/SC(c3ccccc3)N(Cc3ccccc3)C2=O)cc(OC)c1OC (stereo unspecified)	> 200 µM	25.7 µM	
O=C1CCCCCCCCCCC1CN(Cc1ccccc1)Cc1ccccc1 (stereo unspecified)			inactive
COc1cc2c(c(C3(O)C(=O)N(C)c4ccccc43)c1OC)OCO2 (stereo unspecified)	> 200 µM	> 200 µM	
CCC(=O)NC(Nc1cccc(F)c1C)(C(F)(F)F)C(F)(F)F	> 200 µM	> 200 µM	
COc1ccc(C2SCC(=O)N2NC(=O)c2ccc(NC(C)=O)cc2)c(OC)c1 (stereo unspecified)	> 63.1 µM	> 63.1 µM	
O=C(CCc1ccc(O)cc1)NCCc1cccc(OCc2ccccc2)c1	> 200 µM	26.3 µM	
COc1cc2c(c3c1C=CCO3)C(=O)c1ccccc1C2=O			inactive
ClCCCN1CCN(CCCl)CC1	> 832 µM	21.4 µM	
CNc1ccc(Cl)cc1S(=O)(=O)c1ccc([N+](=O)[O-])cc1	> 200 µM	> 200 µM	
CCOC(=O)C12CCC(c3c(C)cccc3C)(O1)C(C(=O)OC)=C2C(=O)OC (stereo unspecified)	> 200 µM	107 µM	
CCC[CH2][Sn]1([CH2]CCC)[O]C(=O)c2cccnc2[O]1	> 97.7 µM	0.0977 µM	
O=C(O)C1(C(=O)O)CC2C3C=CC(C3)C2C1 (stereo unspecified)	> 398 µM	> 398 µM	
COc1ccc(Nc2nc3ccc(C(F)(F)F)cc3nc2C(=O)O)cc1	> 200 µM	20.4 µM	
[N-]=[N+]=NC1C[C@H](n2cc(/C=C/Br)c(=O)[nH]c2=O)C[C@@H]1CO (stereo partly specified)	> 363 µM	355 µM	
S=C1N(c2ccc(Br)cc2)C2=Nc3ccccc3SC(=C2N=Nc2ccc(Br)cc2)N1c1ccc(Cl)cc1	> 32.4 µM	6.17 µM	
O=[N+]([O-])c1ccc(N/N=C/CC(O)(C(F)(F)F)C(F)(F)F)c([N+](=O)[O-])c1	> 200 µM	7.08 µM	
O=c1oc2ccccc2c(O)c1Cc1cccc(Cc2c(O)c3ccccc3oc2=O)c1			active
C/C(=N\NC(=O)c1ccccc1O)c1c(O)cc(C)oc1=O	> 85.1 µM	70.8 µM	
O=C(O)CN1CCNCCN(CC(=O)O)CCNCC1	> 200 µM	3.63 µM	
COc1ccc2[nH]c3c(c2c1)CCNC3CC(C)CCC=C(C)C (stereo unspecified)	> 100 µM	6.31 µM	
N/C(=N\N=C\c1ccc2c(c1)OCO2)NO	> 200 µM	105 µM	

SMILES	EC50	IC50	outcome
CCOC(=O)NC(C)(C)CN(CCO)C(=O)OCC	> 200 µM	> 200 µM	
COc1ccc2c(c1)C1=C(CC2)C(=O)OC1=O			inactive
Cc1c(C(=O)CC(=O)C(=O)NC2C3CC4CC(C3)CC2C4)[n+](=O)c2ccccc2n1[O-] (stereo unspecified)	> 12.3 µM	> 12.3 µM	
COc1ccc(C(=O)C(c2ccc(OC)cc2)C2OC(=O)C(Cl)=C2Cl)cc1 (stereo unspecified)	> 17.8 µM	> 17.8 µM	
O=C1c2ccccc2C(=C2c3ccccc3C(=O)c3ccccc32)c2ccccc21			inactive
C=CCP(=O)(CC=C)C(Cl)Cl	> 200 µM	> 200 µM	
CCS(=O)(=O)CCOP(=O)(c1ccccc1)c1ccccc1			inactive
CC1(C)O[C@@H](CO)[C@H]([C@@]23OC[C@H]4OC(C)(C)OC4[C@@H]2OC(C)(C)O3)O1 (stereo partly specified)	> 200 µM	> 200 µM	
O=C1CSC(c2ccc(Cl)cc2)N1c1ccc(-n2c(-c3ccccc3)nc3ccccc3c2=O)cc1 (stereo unspecified)	> 200 µM	67.6 µM	
Fc1cccc(F)c1C1SCc2nc3ncccc3n21 (stereo unspecified)	39.8 µM	61.7 µM	
CC1(C)CC(=O)c2c(oc3cc(O)c(O)cc23)C1			inactive
C#CCSc1nnnn1-c1ccc(Br)c(C)c1	> 200 µM		
O=C1NC2(O)C(=O)c3ccccc3C2(O)N1 (stereo unspecified)	> 1120 µM	> 1120 µM	
N#CC(c1ccc(Cl)cc1)c1cccc(Cl)n1 (stereo unspecified)	> 70.8 µM	> 70.8 µM	
CC(C)OP(=O)(OC(C)C)C([CH2][Sn]([CH3])([CH3])[Cl])P(=O)(OC(C)C)OC(C)C	> 457 µM	8.32 µM	
CC(C)C1CCC2(C)CC3C(CO)CC(O)C3C(C)(O)C/C=C/12 (stereo unspecified)			inactive
Cc1cn(C2CCC(CO)(CO)CC2O)c(=O)[nH]c1=O (stereo unspecified)	> 871 µM	> 871 µM	
COC1/C=C/OC2(C)Oc3c(C)c(O)c4c(O)c(c(/C=N/N(C)C5OC(COC(=O)c6ccccc6)C(OC(=O)c6ccccc6)C5OC(=O)c5ccccc5)c(O)c4c3C2=O)NC(=O)C(C)=C/C=C/C(C)C(O)C(C)C(O)C(C)C(OC(C)=O)C1C (stereo unspecified)	> 200 µM	10 µM	
Cc1nccnc1N1CCCCC1	> 200 µM	> 200 µM	
